For 18 compounds, GI50 and TGI results are on record in PubChem BioAssay (NCI).

The structures appear in SMILES notation.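 Five concentrations, 48 hours, 96-well plates. GI50 is the concentration that inhibits growth by half. TGI denotes the concentration required for complete inhibition of growth.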

Test systems include T-47D breast; IGROV1 ovarian; SR leukemia; KM12 colon; RPMI-8226 leukemia; PC-3 prostate; SF-295 CNS; OVCAR-5 ovarian; HCT-15 colon; HS 578T breast.
What all share (experiment): inhibition of tumour cell growth, NCI panel, 48 h

In the case of `COc1cc2c3c(n(CCCN(CCCN(CCCn4c5c(c6ccccc6c4=O)C(=O)c4ccccc4-5)C(=O)OC(C)(C)C)C(=O)OC(C)(C)C)c(=O)c2cc1OC)-c1cc2c(cc1C3=O)OCO2`, the GI50 was above 100 µM in the experiment with T-47D breast; above 100 µM in the experiment with IGROV1 ovarian; 33.6 µM in the experiment with SR leukemia; above 100 µM in the experiment with KM12 colon; above 100 µM with RPMI-8226 leukemia; above 100 µM with PC-3 prostate. Also, the GI50 in the experiment with SF-295 CNS was above 100 µM. Further, the TGI in the experiment with T-47D breast, in the experiment on IGROV1 ovarian, in the experiment on SR leukemia, with KM12 colon, with RPMI-8226 leukemia and with PC-3 prostate was above 100 µM in each case. In the experiment with SF-295 CNS, the TGI is above 100 µM.

Regarding `CC1CCC2C(C)C(=O)OC3OC4(C)CCC1C32OO4` (configuration not stated), the GI50 in the experiment with OVCAR-5 ovarian, in the experiment with SR leukemia, in the experiment on KM12 colon and in the experiment on HS 578T breast was above 100 µM each time. The TGI in the experiment with OVCAR-5 ovarian, with HCT-15 colon, in the experiment with IGROV1 ovarian, in the experiment with SR leukemia, in the experiment with KM12 colon and with HS 578T breast was above 100 µM throughout. In addition, the TGI with RPMI-8226 leukemia, in the experiment on PC-3 prostate and in the experiment with SF-295 CNS was above 100 µM in each case.

For `O=C(C=Nc1ccccc1C(=O)[O-])c1cccs1.O=C(C=Nc1ccccc1C(=O)[O-])c1cccs1.[Ni+2]`, the TGI with OVCAR-5 ovarian, in the experiment with HCT-15 colon, in the experiment on IGROV1 ovarian, with SR leukemia, with KM12 colon and in the experiment with SF-295 CNS was above 100 µM throughout.

As to `COc1cc2c3c(n(CCCN4CCNCC4)c(=O)c2cc1OC)-c1cc2c(cc1C3=O)OCO2`, the GI50 is 2.54 µM in the experiment with T-47D breast; 1.75 µM in the experiment on OVCAR-5 ovarian; 0.296 µM in the experiment with HCT-15 colon; 2.03 µM in the experiment on IGROV1 ovarian; 0.633 µM in the experiment on KM12 colon; 1.26 µM in the experiment with HS 578T breast. The GI50 is 0.16 µM in the experiment on RPMI-8226 leukemia, 0.94 µM in the experiment with PC-3 prostate and 0.0851 µM in the experiment on SF-295 CNS. For the same compound, the TGI is 21.3 µM with T-47D breast; 6.77 µM with OVCAR-5 ovarian; 5.14 µM in the experiment with HCT-15 colon; 20.7 µM in the experiment on IGROV1 ovarian; 2.24 µM in the experiment with KM12 colon; 16.2 µM in the experiment on HS 578T breast. The TGI in the experiment with RPMI-8226 leukemia turned out to be 1.63 µM; with PC-3 prostate it was 10.1 µM; in the experiment on SF-295 CNS it was 1.93 µM.

In the case of `O=C1C=C(Nc2ccccc2C(=O)CC(=O)C(=O)Nc2ccc(Cl)cc2)c2ccccc2C1=O`, the TGI is 35.6 µM in the experiment with OVCAR-5 ovarian; 24.8 µM in the experiment on HCT-15 colon; above 88.5 µM in the experiment on IGROV1 ovarian; above 100 µM with SR leukemia; 54.6 µM in the experiment with KM12 colon; above 33.2 µM with RPMI-8226 leukemia.

As to `Cc1ccc([P+](Cc2ccccc2)(c2ccccc2)c2ccccc2)cc1`, the GI50 in the experiment with OVCAR-5 ovarian was 3.42 µM; in the experiment on HCT-15 colon, 19.5 µM; with IGROV1 ovarian, 1.92 µM; with SR leukemia, 2.66 µM; in the experiment on KM12 colon, 1.69 µM; with HS 578T breast, 3.19 µM. Besides, the GI50 is 0.6 µM with RPMI-8226 leukemia, 1.53 µM in the experiment with PC-3 prostate and 2.36 µM in the experiment with SF-295 CNS. Moreover, the TGI with OVCAR-5 ovarian was above 100 µM; with HCT-15 colon, above 100 µM; in the experiment on IGROV1 ovarian, 19 µM; with SR leukemia, 16.5 µM; with KM12 colon it was 12 µM; in the experiment on HS 578T breast, 83.4 µM. Also, the TGI is 6.63 µM with RPMI-8226 leukemia, above 100 µM with PC-3 prostate and 7.69 µM with SF-295 CNS.

As to `O=C(COc1ccccc1Cl)N1N=C(c2ccccc2)CC1(O)c1ccccc1` (configuration not stated), the TGI in the experiment on OVCAR-5 ovarian came to 33.5 µM; in the experiment with HCT-15 colon, 33.6 µM; in the experiment with IGROV1 ovarian, 55.7 µM; in the experiment with SR leukemia, 32.8 µM; with KM12 colon, 41.8 µM; in the experiment with RPMI-8226 leukemia it was 32.9 µM. The compound also had a TGI in the experiment with SF-295 CNS of 34.8 µM.

For the compound `COc1ccc(Nc2nc3cc(C(F)(F)F)ccc3nc2-c2ccccc2)cc1OC`, the TGI in the experiment on OVCAR-5 ovarian is above 100 µM; with HCT-15 colon, above 100 µM; with IGROV1 ovarian it was above 100 µM; in the experiment with SR leukemia, above 100 µM; in the experiment with KM12 colon it was above 100 µM; in the experiment with SF-295 CNS it was 53.3 µM.

On to `O=Cc1cccc2ccc3ccccc3c12`, for which the TGI is 92.4 µM with T-47D breast; above 100 µM with HCT-15 colon; 25.4 µM in the experiment on KM12 colon; 54.7 µM in the experiment on HS 578T breast; 55.5 µM in the experiment with PC-3 prostate; 50.2 µM in the experiment with SF-295 CNS.

For the compound `N#CCCN(CCC#N)c1ccc(/C=C(/NC(=O)c2cc([N+](=O)[O-])ccc2Cl)C(=O)NN)cc1`, the TGI in the experiment on OVCAR-5 ovarian, with HCT-15 colon, with IGROV1 ovarian, in the experiment on SR leukemia, in the experiment with KM12 colon and with RPMI-8226 leukemia was above 100 µM in each case. Besides, the TGI in the experiment on SF-295 CNS was above 100 µM.

Regarding `COc1cccc(C=O)c1C(=O)c1cc(O)ccc1O`, the TGI in the experiment with OVCAR-5 ovarian was above 100 µM; with HCT-15 colon it was 41.3 µM; with IGROV1 ovarian, above 62.5 µM; in the experiment on SR leukemia, 24.1 µM; in the experiment with KM12 colon, above 100 µM; in the experiment with SF-295 CNS, above 100 µM.

`Cc1ccc(C)c2c1C(=O)N(c1ccc(F)cc1F)C2=O`: the GI50 with T-47D breast is 74.5 µM; in the experiment on OVCAR-5 ovarian, above 100 µM; with HCT-15 colon, above 100 µM; in the experiment on IGROV1 ovarian it was above 100 µM; in the experiment with KM12 colon it was above 100 µM; in the experiment on HS 578T breast it was above 100 µM. Further, the GI50 with RPMI-8226 leukemia is 98.8 µM; in the experiment with PC-3 prostate, above 100 µM; in the experiment with SF-295 CNS, above 100 µM. Moreover, the TGI with T-47D breast, in the experiment on OVCAR-5 ovarian, in the experiment with HCT-15 colon, in the experiment on IGROV1 ovarian, in the experiment with KM12 colon and in the experiment with HS 578T breast was above 100 µM each time. The TGI in the experiment on RPMI-8226 leukemia, in the experiment with PC-3 prostate and in the experiment on SF-295 CNS was above 100 µM each time.

Regarding `COC(=O)[C@H]1COC(=S)N1C(=O)[C@@H](C)[C@H](O)C(C)C`, the TGI with OVCAR-5 ovarian, in the experiment on HCT-15 colon, in the experiment with IGROV1 ovarian, in the experiment with SR leukemia, in the experiment on KM12 colon and in the experiment with RPMI-8226 leukemia was above 100 µM each time. For the same compound, the TGI in the experiment on SF-295 CNS was above 100 µM.

Turning to `[O-]/N=[N+](/[O-])C1CCCCC1=[N+]1CCOCC1` (configuration not stated), the TGI in the experiment on OVCAR-5 ovarian, with SR leukemia, with KM12 colon, in the experiment with RPMI-8226 leukemia and with SF-295 CNS was above 100 µM throughout.

For `CC1(C)CC(=O)C=C(/C=C/Sc2c(Cl)c(Cl)nc(Cl)c2Cl)C1`, the GI50 in the experiment on OVCAR-5 ovarian was 14.5 µM; with HCT-15 colon, 5.64 µM; with IGROV1 ovarian it was 4.75 µM; in the experiment on SR leukemia it was 3.89 µM; in the experiment on KM12 colon, 11.6 µM; with HS 578T breast, 25.8 µM. For the same compound, the figures for the GI50 in the experiment on RPMI-8226 leukemia, in the experiment with PC-3 prostate and in the experiment with SF-295 CNS were 3.41 µM, 3.54 µM and 17.7 µM, respectively. Moreover, the TGI was 29.7 µM with OVCAR-5 ovarian; 23 µM in the experiment on HCT-15 colon; 84.9 µM in the experiment with IGROV1 ovarian; above 100 µM in the experiment on SR leukemia; 26.2 µM in the experiment on KM12 colon; 74.3 µM in the experiment with HS 578T breast. For the same compound, the results for the TGI in the experiment on RPMI-8226 leukemia, with PC-3 prostate and in the experiment with SF-295 CNS were 75.1 µM, 14.1 µM and 35.6 µM, respectively.

For the compound `O=C(CN1CCN(Cc2ccccc2Cl)CC1)NC1CC(=O)c2c(Br)sc(Br)c21` (configuration not stated), the GI50 was 21.6 µM in the experiment on T-47D breast; 51.4 µM in the experiment with OVCAR-5 ovarian; 18 µM in the experiment with HCT-15 colon; 18.2 µM in the experiment with IGROV1 ovarian; 20.9 µM in the experiment on KM12 colon; 29.4 µM in the experiment on HS 578T breast. Further, the GI50 in the experiment on RPMI-8226 leukemia is 16.6 µM; in the experiment with PC-3 prostate it was 16.1 µM; in the experiment on SF-295 CNS, 25.6 µM. In addition, the TGI with T-47D breast was 43.9 µM; in the experiment with OVCAR-5 ovarian, above 100 µM; in the experiment on HCT-15 colon, 34.1 µM; in the experiment with IGROV1 ovarian, 34.5 µM; in the experiment on KM12 colon it was 40.6 µM; in the experiment on HS 578T breast it was 71.5 µM. In addition, the TGI in the experiment with RPMI-8226 leukemia came to 38.5 µM; in the experiment with PC-3 prostate, 34.6 µM; in the experiment with SF-295 CNS it was 57.6 µM.

For `Cc1cc(=O)[nH]c(CNC(=O)c2ccc3ccccc3c2)n1`, the TGI in the experiment on OVCAR-5 ovarian, in the experiment with HCT-15 colon, in the experiment with IGROV1 ovarian, in the experiment with SR leukemia, in the experiment with KM12 colon and in the experiment on SF-295 CNS was above 100 µM each time.

Take `CNS(=O)(=O)OCC1OC(n2cnc3cncnc32)C(O)C1O` (configuration not stated): the GI50 in the experiment on T-47D breast, with OVCAR-5 ovarian, in the experiment with HCT-15 colon, in the experiment with IGROV1 ovarian, in the experiment on KM12 colon and with HS 578T breast was above 100 µM each time. The GI50 in the experiment on RPMI-8226 leukemia, in the experiment on PC-3 prostate and in the experiment on SF-295 CNS was above 100 µM throughout. Also, the TGI in the experiment with T-47D breast, in the experiment with OVCAR-5 ovarian, with HCT-15 colon, in the experiment on IGROV1 ovarian, in the experiment with KM12 colon and in the experiment with HS 578T breast was above 100 µM throughout. The TGI in the experiment with RPMI-8226 leukemia, with PC-3 prostate and with SF-295 CNS was above 100 µM throughout.
